{
  "source": "paper PMC5428509",
  "about": "“Irreversible inhibition of BTK kinase by a novel highly selective inhibitor CHMFL-BTK-11 suppresses inflammatory response in rheumatoid arthritis model” (Scientific Reports, 2017)",
  "assay_in_all_cases": "biochemical",
  "set-up_in_all_cases": "KinomeScan competition binding panel (DiscoveRx), percent of control at 1 uM",
  "conditions_in_all_cases": "read-out: Percent Control",
  "key": {"CAMK1": {"target": "CAMK1 (Homo sapiens, UniProt Q14012)", "how_it_was_run": "(§1)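 Selectivity profiled across 456 kinases/mutants by KinomeScan binding technology.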"}, "CAMKK1": {"target": "CAMKK1 (Homo sapiens, UniProt Q8N5S9)", "how_it_was_run": "as §1"}, "CDK9": {"target": "CDK9 (Homo sapiens, UniProt P50750)", "how_it_was_run": "as §1"}, "[1]": {"target": "EGFR(L747-E749del, A750P) (Homo sapiens, UniProt P00533, A750P/DEL747-749)", "how_it_was_run": "as §1"}, "EPHA3": {"target": "EPHA3 (Homo sapiens, UniProt P29320)", "how_it_was_run": "as §1"}, "FLT4": {"target": "FLT4 (Homo sapiens, UniProt P35916)", "how_it_was_run": "as §1"}, "GAK": {"target": "GAK (Homo sapiens, UniProt O14976)", "sequence (O14976 whole entry)": "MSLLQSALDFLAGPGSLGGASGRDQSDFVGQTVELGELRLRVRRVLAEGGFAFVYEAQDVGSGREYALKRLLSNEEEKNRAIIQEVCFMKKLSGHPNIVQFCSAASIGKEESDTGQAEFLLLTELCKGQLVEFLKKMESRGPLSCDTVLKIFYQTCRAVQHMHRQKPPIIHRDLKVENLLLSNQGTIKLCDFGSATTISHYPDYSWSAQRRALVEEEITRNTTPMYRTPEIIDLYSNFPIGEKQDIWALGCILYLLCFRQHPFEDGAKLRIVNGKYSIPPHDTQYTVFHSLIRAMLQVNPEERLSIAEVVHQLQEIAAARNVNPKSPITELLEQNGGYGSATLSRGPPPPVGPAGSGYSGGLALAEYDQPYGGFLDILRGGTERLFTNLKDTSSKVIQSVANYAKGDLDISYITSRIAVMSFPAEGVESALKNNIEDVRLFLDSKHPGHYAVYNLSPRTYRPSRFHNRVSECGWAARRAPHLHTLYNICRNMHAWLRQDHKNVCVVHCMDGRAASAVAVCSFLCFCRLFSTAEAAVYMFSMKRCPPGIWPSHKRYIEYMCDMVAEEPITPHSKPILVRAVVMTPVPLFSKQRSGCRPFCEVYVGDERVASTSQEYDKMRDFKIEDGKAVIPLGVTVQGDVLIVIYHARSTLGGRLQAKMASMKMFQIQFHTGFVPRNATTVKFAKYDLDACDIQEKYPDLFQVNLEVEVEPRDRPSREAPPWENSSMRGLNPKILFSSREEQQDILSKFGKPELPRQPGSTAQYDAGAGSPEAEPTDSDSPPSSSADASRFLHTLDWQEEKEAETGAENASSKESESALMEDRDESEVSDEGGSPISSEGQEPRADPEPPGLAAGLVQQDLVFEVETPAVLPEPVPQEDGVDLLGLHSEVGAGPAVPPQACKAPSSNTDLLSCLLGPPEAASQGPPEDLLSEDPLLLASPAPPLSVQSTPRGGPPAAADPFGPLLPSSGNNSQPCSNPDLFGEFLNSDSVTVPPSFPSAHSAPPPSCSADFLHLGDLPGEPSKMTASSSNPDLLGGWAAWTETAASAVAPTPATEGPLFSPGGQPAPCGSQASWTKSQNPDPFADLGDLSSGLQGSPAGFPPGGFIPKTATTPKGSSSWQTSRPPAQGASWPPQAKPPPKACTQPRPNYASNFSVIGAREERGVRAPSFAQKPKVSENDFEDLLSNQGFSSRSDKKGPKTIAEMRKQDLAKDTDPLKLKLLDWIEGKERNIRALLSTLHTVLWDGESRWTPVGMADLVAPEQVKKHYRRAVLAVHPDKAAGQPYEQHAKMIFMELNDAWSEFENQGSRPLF", "how_it_was_run": "as §1"}, "HIPK3": {"target": "HIPK3 (Homo sapiens, UniProt Q9H422)", "sequence (Q9H422 whole entry)": "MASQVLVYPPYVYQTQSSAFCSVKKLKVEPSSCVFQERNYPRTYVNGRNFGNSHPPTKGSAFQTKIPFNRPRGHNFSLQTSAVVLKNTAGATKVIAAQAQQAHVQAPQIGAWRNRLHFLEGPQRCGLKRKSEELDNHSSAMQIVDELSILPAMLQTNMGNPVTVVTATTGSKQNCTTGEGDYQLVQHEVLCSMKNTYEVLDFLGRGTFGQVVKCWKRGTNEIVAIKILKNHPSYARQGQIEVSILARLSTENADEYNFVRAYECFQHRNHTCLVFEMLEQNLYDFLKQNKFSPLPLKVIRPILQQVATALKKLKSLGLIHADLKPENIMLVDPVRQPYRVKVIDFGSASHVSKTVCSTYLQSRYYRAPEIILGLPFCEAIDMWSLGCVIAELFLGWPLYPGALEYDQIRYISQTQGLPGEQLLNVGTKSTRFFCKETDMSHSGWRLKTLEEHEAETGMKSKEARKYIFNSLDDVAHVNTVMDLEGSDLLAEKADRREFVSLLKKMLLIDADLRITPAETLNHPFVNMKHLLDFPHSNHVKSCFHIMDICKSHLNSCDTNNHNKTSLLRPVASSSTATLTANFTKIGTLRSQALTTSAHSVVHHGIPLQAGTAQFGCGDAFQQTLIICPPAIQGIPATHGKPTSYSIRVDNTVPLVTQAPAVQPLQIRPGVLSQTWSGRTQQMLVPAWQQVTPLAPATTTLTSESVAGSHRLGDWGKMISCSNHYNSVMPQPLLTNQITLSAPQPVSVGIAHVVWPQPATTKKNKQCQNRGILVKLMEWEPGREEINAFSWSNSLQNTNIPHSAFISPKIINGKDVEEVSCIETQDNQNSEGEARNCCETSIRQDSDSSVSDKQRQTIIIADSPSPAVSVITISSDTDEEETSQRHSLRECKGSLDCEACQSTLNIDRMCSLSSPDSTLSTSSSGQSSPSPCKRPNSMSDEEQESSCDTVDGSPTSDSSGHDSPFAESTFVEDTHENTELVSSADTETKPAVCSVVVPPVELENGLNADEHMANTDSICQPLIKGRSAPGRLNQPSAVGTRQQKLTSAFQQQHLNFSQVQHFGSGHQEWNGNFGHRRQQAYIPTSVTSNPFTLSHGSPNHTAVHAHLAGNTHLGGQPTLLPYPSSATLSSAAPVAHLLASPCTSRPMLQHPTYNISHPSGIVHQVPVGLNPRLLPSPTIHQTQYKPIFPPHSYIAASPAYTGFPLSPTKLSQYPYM", "how_it_was_run": "as §1"}, "LATS2": {"target": "LATS2 (Homo sapiens, UniProt Q9NRM7)", "how_it_was_run": "as §1"}, "LKB1": {"target": "T1, LKB1 (Homo sapiens, UniProt Q15831)", "T1 construct": "gene STK11", "how_it_was_run": "as §1"}, "LRRK2(G2019S)": {"target": "LRRK2(G2019S) (Homo sapiens, UniProt Q5S007, G2019S)", "how_it_was_run": "as §1"}, "MEK5": {"target": "T2, MEK5 (Homo sapiens, UniProt Q13163)", "T2 construct": "gene MAP2K5", "how_it_was_run": "as §1"}, "MELK": {"target": "MELK (Homo sapiens, UniProt Q14680)", "how_it_was_run": "as §1"}, "MET(Y1235D)": {"target": "MET(Y1235D) (Homo sapiens, UniProt P08581, Y1235D)", "how_it_was_run": "as §1"}, "MYLK2": {"target": "MYLK2 (Homo sapiens, UniProt Q9H1R3)", "sequence (Q9H1R3 whole entry)": "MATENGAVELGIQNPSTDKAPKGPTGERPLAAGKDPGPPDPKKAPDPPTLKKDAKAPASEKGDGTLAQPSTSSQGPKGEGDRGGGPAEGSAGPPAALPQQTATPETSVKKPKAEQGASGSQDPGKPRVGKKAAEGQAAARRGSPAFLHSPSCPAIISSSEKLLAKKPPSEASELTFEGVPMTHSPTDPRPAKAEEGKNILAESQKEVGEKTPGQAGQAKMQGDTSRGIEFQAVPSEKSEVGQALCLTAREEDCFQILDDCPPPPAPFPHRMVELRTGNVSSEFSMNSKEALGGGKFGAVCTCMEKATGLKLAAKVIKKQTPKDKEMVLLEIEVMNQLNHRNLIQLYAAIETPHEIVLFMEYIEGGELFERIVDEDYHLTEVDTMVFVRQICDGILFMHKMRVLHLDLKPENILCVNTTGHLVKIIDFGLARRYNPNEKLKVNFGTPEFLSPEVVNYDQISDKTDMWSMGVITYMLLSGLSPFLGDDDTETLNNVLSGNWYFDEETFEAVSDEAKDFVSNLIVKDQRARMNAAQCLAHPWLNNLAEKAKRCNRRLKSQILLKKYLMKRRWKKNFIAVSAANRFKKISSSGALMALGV", "how_it_was_run": "as §1"}, "NDR1": {"target": "T3, NDR1 (Homo sapiens, UniProt Q15208)", "T3 construct": "gene STK38", "how_it_was_run": "as §1"}, "PCTK3": {"target": "T4, PCTK3 (Homo sapiens, UniProt Q07002)", "T4 construct": "gene CDK18", "how_it_was_run": "as §1"}, "PDPK1": {"target": "PDPK1 (Homo sapiens, UniProt O15530)", "sequence (O15530 whole entry)": "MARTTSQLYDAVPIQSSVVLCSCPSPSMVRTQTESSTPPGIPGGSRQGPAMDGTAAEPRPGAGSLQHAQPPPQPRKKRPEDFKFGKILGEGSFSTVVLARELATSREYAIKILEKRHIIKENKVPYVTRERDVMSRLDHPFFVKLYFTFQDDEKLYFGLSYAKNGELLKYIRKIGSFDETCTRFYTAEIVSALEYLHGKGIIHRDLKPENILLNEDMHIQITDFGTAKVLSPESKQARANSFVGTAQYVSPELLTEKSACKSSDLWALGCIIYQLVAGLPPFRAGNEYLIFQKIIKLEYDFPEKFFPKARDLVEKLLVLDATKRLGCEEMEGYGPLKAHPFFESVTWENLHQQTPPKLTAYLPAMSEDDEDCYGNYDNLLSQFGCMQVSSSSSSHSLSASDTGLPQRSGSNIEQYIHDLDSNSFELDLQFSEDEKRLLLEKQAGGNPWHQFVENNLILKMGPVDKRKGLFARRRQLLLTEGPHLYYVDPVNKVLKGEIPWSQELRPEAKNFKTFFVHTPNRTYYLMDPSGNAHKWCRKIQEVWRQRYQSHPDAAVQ", "how_it_was_run": "as §1"}, "PIK3CA(H1047Y)": {"target": "PIK3CA(H1047Y) (Homo sapiens, UniProt P42336, H1047Y)", "sequence (P42336 whole entry H1047Y)": "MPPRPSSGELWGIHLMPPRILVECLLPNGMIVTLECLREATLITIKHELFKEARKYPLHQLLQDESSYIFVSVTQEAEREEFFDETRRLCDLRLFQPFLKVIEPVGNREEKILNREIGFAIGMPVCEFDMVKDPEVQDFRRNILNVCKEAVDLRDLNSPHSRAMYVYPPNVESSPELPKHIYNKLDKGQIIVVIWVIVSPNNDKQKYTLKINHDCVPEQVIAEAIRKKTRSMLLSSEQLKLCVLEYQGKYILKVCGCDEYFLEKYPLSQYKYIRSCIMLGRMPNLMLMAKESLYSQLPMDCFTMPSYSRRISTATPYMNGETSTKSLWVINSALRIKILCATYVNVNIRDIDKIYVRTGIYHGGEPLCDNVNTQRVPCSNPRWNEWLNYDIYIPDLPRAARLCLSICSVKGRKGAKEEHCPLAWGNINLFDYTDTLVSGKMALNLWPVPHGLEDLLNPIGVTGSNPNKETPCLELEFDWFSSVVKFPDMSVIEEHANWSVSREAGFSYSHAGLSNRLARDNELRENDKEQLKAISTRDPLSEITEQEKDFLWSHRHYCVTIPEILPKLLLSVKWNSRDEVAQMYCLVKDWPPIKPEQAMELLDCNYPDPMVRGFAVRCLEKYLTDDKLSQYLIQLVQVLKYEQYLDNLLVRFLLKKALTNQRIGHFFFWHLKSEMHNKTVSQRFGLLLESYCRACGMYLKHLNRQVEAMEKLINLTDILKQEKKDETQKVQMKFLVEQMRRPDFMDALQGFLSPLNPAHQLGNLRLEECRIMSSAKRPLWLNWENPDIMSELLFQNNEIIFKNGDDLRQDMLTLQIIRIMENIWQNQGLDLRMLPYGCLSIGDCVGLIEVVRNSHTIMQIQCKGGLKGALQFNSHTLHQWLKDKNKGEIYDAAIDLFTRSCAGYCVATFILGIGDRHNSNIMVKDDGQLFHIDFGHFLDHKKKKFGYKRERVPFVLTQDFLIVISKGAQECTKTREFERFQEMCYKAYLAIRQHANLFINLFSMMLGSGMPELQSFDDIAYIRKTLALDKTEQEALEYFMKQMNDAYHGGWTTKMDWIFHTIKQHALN", "how_it_was_run": "as §1"}, "PIK3CA(I800L)": {"target": "PIK3CA(I800L) (Homo sapiens, UniProt P42336, I800L)", "sequence (P42336 whole entry I800L)": "as the sequence (P42336 whole entry H1047Y) above, with I800L, Y1047H counted along it", "how_it_was_run": "as §1"}, "PRKD1": {"target": "PRKD1 (Homo sapiens, UniProt Q15139)", "how_it_was_run": "as §1"}, "RIPK1": {"target": "RIPK1 (Homo sapiens, UniProt Q13546)", "how_it_was_run": "as §1"}, "[2]": {"target": "T5, RSK1(Kin.Dom.1-N-terminal) (Homo sapiens, UniProt Q15418)", "T5 construct": "gene RPS6KA1; Kin.Dom.1-N-terminal", "how_it_was_run": "as §1"}, "TAOK3": {"target": "TAOK3 (Homo sapiens, UniProt Q9H2K8)", "how_it_was_run": "as §1"}},
  "data": [
    {"compound": "C=CC(=O)Nc1cc(-n2c(=O)ccc3cnc4ccc(-n5cccn5)cc4c32)ccc1C", "note": "[CHMFL-BTK-11]", "values": [
      {"measurement": "remaining binding at 1 µM", "setting": "CAMK1", "result": 98, "unit": "%"},
      {"measurement": "remaining binding at 1 µM", "setting": "CAMKK1", "result": 78, "unit": "%"},
      {"measurement": "remaining binding at 1 µM", "setting": "CDK9", "result": 96, "unit": "%"},
      {"measurement": "remaining binding at 1 µM", "setting": "[1]", "result": 73, "unit": "%"},
      {"measurement": "remaining binding at 1 µM", "setting": "EPHA3", "result": 97, "unit": "%"},
      {"measurement": "remaining binding at 1 µM", "setting": "FLT4", "result": 100, "unit": "%"},
      {"measurement": "remaining binding at 1 µM", "setting": "GAK", "result": 100, "unit": "%"},
      {"measurement": "remaining binding at 1 µM", "setting": "HIPK3", "result": 100, "unit": "%"},
      {"measurement": "remaining binding at 1 µM", "setting": "LATS2", "result": 100, "unit": "%"},
      {"measurement": "remaining binding at 1 µM", "setting": "LKB1", "result": 91, "unit": "%"},
      {"measurement": "remaining binding at 1 µM", "setting": "LRRK2(G2019S)", "result": 95, "unit": "%"},
      {"measurement": "remaining binding at 1 µM", "setting": "MEK5", "result": 80, "unit": "%"},
      {"measurement": "remaining binding at 1 µM", "setting": "MELK", "result": 73, "unit": "%"},
      {"measurement": "remaining binding at 1 µM", "setting": "MET(Y1235D)", "result": 100, "unit": "%"},
      {"measurement": "remaining binding at 1 µM", "setting": "MYLK2", "result": 100, "unit": "%"},
      {"measurement": "remaining binding at 1 µM", "setting": "NDR1", "result": 68, "unit": "%"},
      {"measurement": "remaining binding at 1 µM", "setting": "PCTK3", "result": 90, "unit": "%"},
      {"measurement": "remaining binding at 1 µM", "setting": "PDPK1", "result": 90, "unit": "%"},
      {"measurement": "remaining binding at 1 µM", "setting": "PIK3CA(H1047Y)", "result": 82, "unit": "%"},
      {"measurement": "remaining binding at 1 µM", "setting": "PIK3CA(I800L)", "result": 62, "unit": "%"},
      {"measurement": "remaining binding at 1 µM", "setting": "PRKD1", "result": 94, "unit": "%"},
      {"measurement": "remaining binding at 1 µM", "setting": "RIPK1", "result": 90, "unit": "%"},
      {"measurement": "remaining binding at 1 µM", "setting": "[2]", "result": 82, "unit": "%"},
      {"measurement": "remaining binding at 1 µM", "setting": "TAOK3", "result": 93, "unit": "%"}
    ]}
  ]
}
